Drawing on US11780839B2, “Compounds for treating Huntington's disease” (PTC THERAPEUTICS, INC., priority 2018, dated 2023), this text covers IC50 for 35 molecules.

This experiment concerns Endogenous Huntingtin Protein. Briefly: Endogenous Huntingtin Protein Assay (ELISA-based Meso Scale Discovery electrochemiluminescence). Particulars: MSD electrochemiluminescence, Table 1. In kind it is cell-based. The procedure, abridged:
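Sandwich MSD electrochemiluminescence immunoassay. Capture used MW1 (expanded polyglutamine) or MAB2166 antibody coated at 1 μg/mL overnight at 4 °C. Samples were bound overnight at 4 °C, then a rabbit monoclonal detection antibody and SULFO-TAG anti-rabbit, each at 0.25 μg/mL, were applied for 1 h at room temperature.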
For orientation: ELISA stands for enzyme-linked immunosorbent assay.
As usually defined, the IC50 is the concentration at which inhibition is half-maximal. Lower therefore signals inhibition by little substance. As to `CNC1CCN(c2ncc(-c3ccc(-c4cnc(C)o4)cc3O)nn2)C1` (stereo not drawn) [Cpd 350, 2-{3-[3-(methylamino)pyrrolidin-l-yl]-1,2,4-triazin-6-yl}-5-(2-methyl-1,3-oxazol-5-yl)phenol], the half-maximal inhibitory concentration (IC50) was ≤ 100 nM.
For `CN(c1ncc(-c2ccc(-c3cc(CN)c4nccn4n3)cc2O)nn1)C1CC(C)(C)NC(C)(C)C1` [Cpd 351, 5-[8-(aminomethyl)imidazo[1,2-b]pyridazin-6-yl]-2-{3-[methyl(2,2,6,6-tetramethylpiperidin-4-yl)amino]-1,2,4-triazin-6-yl}phenol], the IC50 was ≤ 100 nM.
Take `CC1(C)CC(Nc2ncc(-c3ccc(-c4ncco4)cc3O)nn2)CC(C)(C)N1` [Cpd 352, 5-(1,3-oxazol-2-yl)-2-{3-[(2,2,6,6-tetramethylpiperidin-4-yl)amino]-1,2,4-triazin-6-yl}phenol]: the IC50 was ≤ 100 nM.
Turning to `Oc1cc(-c2cn[nH]c2)ccc1-c1cnc(N2CCC3(CNCCO3)C2)nn1` (centres unmarked) [Cpd 353, 2-[3-(6-oxa-2,9-diazaspiro[4.5]decan-2-yl)-1,2,4-triazin-6-yl]-5-(1H-pyrazol-4-yl)phenol], the concentration for half-maximal inhibition (IC50) lay in the range of 1000 to 3000 nM.
For `Oc1cc(-c2cn[nH]c2)ccc1-c1cnc(N2CCC3(CCNC3)C2)nn1` (centres unmarked) [Cpd 354, 2-[3-(2,7-diazaspirol{4.4}nonan-2-yl)-1,2,4-triazin-6-yl]-5-(1H-pyrazol-4-yl)phenol], the IC50 is ≤ 100 nM.
In the case of `CC(C)(C)N[C@H]1CCN(c2ncc(-c3ccc(-c4cn[nH]c4)cc3O)nn2)C1` [Cpd 355, 2-{3-[(3S)-3-(tert-butylamino)pyrrolidin-l-yl]-1,2,4-triazin-6-yl}-5-(1H-pyrazol-4-yl)phenol], the IC50 is ≤ 100 nM.
Turning to `CC(C)(C)N[C@@H]1CCN(c2ncc(-c3ccc(-c4cn[nH]c4)cc3O)nn2)C1` [Cpd 356, 2-{3-[(3R)-3-(tert-butylamino)pyrrolidin-l-yl]-1,2,4-triazin-6-yl}-5-(1H-pyrazol-4-yl)phenol], the IC50 is ≤ 100 nM.
Consider `Oc1cc(-c2cn[nH]c2)ccc1-c1cnc(N2CCC(NC3CCCC3)C2)nn1` (stereo not drawn) [Cpd 357, 2-{3-[3-(cyclopentylamino)pyrrolidin-l-yl]-1,2,4-triazin-6-yl}-5-(1H-pyrazol-4-yl)phenol], for which the concentration for half-maximal inhibition (IC50) is ≤ 100 nM.
The value for `CNC1CCN(c2ncc(-c3ccc(-c4ncco4)cc3O)nn2)C1` (stereo not drawn) [Cpd 358, 2-{3-[3-(methylamino)pyrrolidin-l-yl]-1,2,4-triazin-6-yl}-5-(1,3-oxazol-2-yl)phenol] was 100 to 500 nM; that for `CC1(C)CC(Nc2ncc(-c3ccc(-c4cn5ccncc5n4)cc3O)nn2)CC(C)(C)N1` [Cpd 359, 5-(imidazo[1,2-a]pyrazin-2-yl)-2-{3-[(2,2,6,6-tetramethylpiperidin-4-yl)amino]-1,2,4-triazin-6-yl}phenol] was ≤ 100 nM.
The value for `CC1(C)CC(Nc2ncc(-c3ccc(-c4cn5ccccc5n4)cc3O)nn2)CC(C)(C)N1` [Cpd 360, 5-(imidazo[1,2-a]pyridin-2-yl)-2-{3-[(2,2,6,6-tetramethylpiperidin-4-yl)amino]-1,2,4-triazin-6-yl}phenol] was 100 to 500 nM.
For `CC(C)NCC1CCN(c2ncc(-c3ccc(-c4cn[nH]c4)cc3O)nn2)C1` (stereo not drawn) [Cpd 361, 2-[3-(3-{[(propan-2-yl)amino]methyl}pyrrolidin-l-yl)-1,2,4-triazin-6-yl]-5-(1H-pyrazol-4-yl)phenol], the concentration for half-maximal inhibition (IC50) was ≤ 100 nM.
For `CC1(NC2CCN(c3ncc(-c4ccc(-c5cn[nH]c5)cc4O)nn3)C2)CCOCC1` (stereo not drawn) [Cpd 362, 2-(3-{3-[(4-methyloxan-4-yl)amino]pyrrolidin-l-yl}-1,2,4-triazin-6-yl)-5-(1H-pyrazol-4-yl)phenol], the IC50 was ≤ 100 nM.
Consider `CC(C)(C)NC1CCN(c2cnc(-c3ccc(-c4cn[nH]c4)cc3O)nn2)C1` (stereo not drawn) [Cpd 363, 2-{6-[3-(tert-butylamino)pyrrolidin-l-yl]-1,2,4-triazin-3-yl}-5-(1H-pyrazol-4-yl)phenol], for which the IC50 was ≤ 100 nM.
For `CNC1CCN(c2ncc(-c3ccc(-c4cc(SC)ncn4)cc3O)nn2)C1` (stereo not drawn) [Cpd 364, 2-{3-[3-(methylamino)pyrrolidin-l-yl]-1,2,4-triazin-6-yl}-5-[6-(methylsulfanyl)pyrimidin-4-yl]phenol], the IC50 lay in the range of 100 to 500 nM.
Regarding `CC(C)(C)NC1CCN(c2ncc(-c3ccc(-c4c[nH]nc4Cl)cc3O)nn2)C1` (stereo not drawn) [Cpd 365, 2-{3-[3-(tert-butylamino)pyrrolidin-l-yl]-1,2,4-triazin-6-yl}-5-(3-chloro-1H-pyrazol-4-yl)phenol], the half-inhibitory concentration (IC50) was ≤ 100 nM.
`CC(C)(C)NC1CCN(c2ncc(-c3ccc(-c4c[nH]nc4C#N)cc3O)nn2)C1` (stereo not drawn) [Cpd 366, 4-(4-{3-[3-(tert-butylamino)pyrrolidin-l-yl]-1,2,4-triazin-6-yl]-3-hydroxyphenyl)-1H-pyrazole-3-carbonitrile]: the IC50 is ≤ 100 nM.
Take `[2H]C([2H])([2H])n1cc(-c2ccc(-c3cnc(N4CCC(NC(C)(C)C)C4)nn3)c(O)c2)cn1` (stereo not drawn) [Cpd 367, 2-{3-[3-(tert-butylamino)pyrrolidin-l-yl]-1,2,4-triazin-6-yl}-5-[1-(^2H3)methyl-1H-pyrazol-4-yl]phenol]: the IC50 is ≤ 100 nM.
The molecule `CN(c1ncc(-c2ccc(-c3ccn(C)n3)c(O)c2O)nn1)C1CC(C)(C)NC(C)(C)C1` [Cpd 368, 3-(1-methyl-1H-pyrazol-3-yl)-6-{3-[methyl(2,2,6,6-tetramethylpiperidin-4-yl)amino]-1,2,4-triazin-6-yl}benzene-1,2-diol] had an IC50 of 100 to 500 nM.
With `Oc1cc(-c2cn[nH]c2)ccc1-c1cnc(N2CCC3(CCCNC3)C2)nn1` (centres unmarked) [Cpd 369, 2-[3-(2,7-diazaspiro[4.5]decan-2-yl)-1,2,4-triazin-6-yl]-5-(1H-pyrazol-4-yl)phenol], the concentration for half-maximal inhibition (IC50) is ≤ 100 nM.
`Oc1cc(-c2cn[nH]c2)ccc1-c1cnc(N2CC3CCNC3C2)nn1` (centres unmarked) [Cpd 370, 2-[3-(hexahydropyrrolo[3,4-b]pyrrol-5(1H)-yl)-1,2,4-triazin-6-yl]-5-(1H-pyrazol-4-yl)phenol]: the IC50 was ≤ 100 nM.
The value for `OCCCNC1CCN(c2ncc(-c3ccc(-c4cn[nH]c4)cc3O)nn2)C1` (centres unmarked) [Cpd 371, 2-(3-{3-[(3-hydroxypropyl)amino]pyrrolidin-1-yl}-1,2,4-triazin-6-yl)-5-(1H-pyrazol-4-yl)phenol] was ≤ 100 nM; that for `Oc1cc(-c2cn[nH]c2)ccc1-c1cnc(N2CCC(CNC3CCOCC3)C2)nn1` (centres unmarked) [Cpd 372, 2-[3-(3-{[(oxan-4-yl)amino]methyl}pyrrolidin-1-yl)-1,2,4-triazin-6-yl]-5-(1H-pyrazol-4-yl)phenol] was ≤ 100 nM.
Regarding `[2H]C([2H])([2H])n1cc(-c2ccc(-c3cnc(NC4CC(C)(C)NC(C)(C)C4)nn3)c(O)c2)cn1` [Cpd 373, 5-[1-(^2H3)methyl-1H-pyrazol-4-yl]-2-{3-[(2,2,6,6-tetramethylpiperidin-4-yl)amino]-1,2,4-triazin-6-yl}phenol], the IC50 was ≤ 100 nM.
Turning to `CC(C)(C)NC1CCN(c2cnc(-c3ccc(-c4c[nH]nc4F)cc3O)nn2)C1` (centres unmarked) [Cpd 374, 2-{6-[3-(tert-butylamino)pyrrolidin-1-yl]-1,2,4-triazin-3-yl}-5-(3-fluoro-1H-pyrazol-4-yl)phenol], the IC50 was ≤ 100 nM.
On to `Cc1n[nH]cc1-c1ccc(-c2cnc(N3CCC(NC(C)(C)C)C3)nn2)c(O)c1` (centres unmarked) [Cpd 375, 2-{3-[3-(tert-butylamino)pyrrolidin-1-yl]-1,2,4-triazin-6-yl}-5-(3-methyl-1H-pyrazol-4-yl)phenol], for which the IC50 was ≤ 100 nM.
Regarding `COc1cc(-c2cn[nH]c2)cc(O)c1-c1cnc(N2CCC(NC(C)(C)C)C2)nn1` (centres unmarked) [Cpd 376, 2-{3-[3-(tert-butylamino)pyrrolidin-1-yl]-1,2,4-triazin-6-yl}-3-methoxy-5-(1H-pyrazol-4-yl)phenol], the IC50 is ≤ 100 nM.
Take `[2H]C([2H])([2H])n1cc(-c2ccc(-c3cnc(N[C@H]4CC(C)(C)NC(C)(C)[C@H]4F)nn3)c(O)c2)cn1` [Cpd 377, 2-(3-{[(3S,4S)-3-fluoro-2,2,6,6-tetramethylpiperidin-4-yl]amino}-1,2,4-triazin-6-yl)-5-[1-(^2H3)methyl-1H-pyrazol-4-yl]phenol]: the 50% inhibitory concentration (IC50) is ≤ 100 nM.
Regarding `CC(C)(C)N[C@H]1CCN(c2ncc(-c3ccc(-c4c[nH]nc4F)cc3O)nn2)C1` [Cpd 378, 2-{3-[(3S)-3-(tert-butylamino)pyrrolidin-1-yl]-1,2,4-triazin-6-yl}-5-(3-fluoro-1H-pyrazol-4-yl)phenol], the IC50 was ≤ 100 nM.
In the case of `CC(C)(C)N[C@@H]1CCN(c2ncc(-c3ccc(-c4c[nH]nc4F)cc3O)nn2)C1` [Cpd 379, 2-{3-[(3R)-3-(tert-butylamino)pyrrolidin-1-yl]-1,2,4-triazin-6-yl}-5-(3-fluoro-1H-pyrazol-4-yl)phenol], the IC50 was ≤ 100 nM.
In the case of `CNc1cc(-c2ccc(-c3cnc(N4CCC(NC)C4)nn3)c(O)c2)ncn1` (centres unmarked) [Cpd 380, 5-[6-(methylamino)pyrimidin-4-yl]-2-{3-[3-(methylamino)pyrrolidin-1-yl]-1,2,4-triazin-6-yl}phenol], the concentration for half-maximal inhibition (IC50) was ≤ 100 nM.
As for `CN(c1ncc(-c2ccc(-n3ncc4ccncc43)cc2O)nn1)C1CC(C)(C)NC(C)(C)C1` [Cpd 381, 2-{3-[methyl(2,2,6,6-tetramethylpiperidin-4-yl)amino]-1,2,4-triazin-6-yl}-5-(1H-pyrazolo[3,4-c]pyridin-1-yl)phenol], the IC50 is ≤ 100 nM.
The value for `CN(c1cnc(-c2ccc(-c3ccncc3)cc2O)nn1)C1CC(C)(C)NC(C)(C)C1` [Cpd 382, 2-{6-[methyl(2,2,6,6-tetramethylpiperidin-4-yl)amino]-1,2,4-triazin-3-yl}-5-(pyridin-4-yl)phenol] was ≤ 100 nM; that for `CN(c1ncc(-c2ccc(-c3cc(F)c4[nH]ncc4c3)cc2O)nn1)C1CC(C)(C)NC(C)(C)C1` [Cpd 383, 5-(7-fluoro-1H-indazol-5-yl)-2-{3-[methyl(2,2,6,6-tetramethylpiperidin-4-yl)amino]-1,2,4-triazin-6-yl}phenol] was ≤ 100 nM; that for `CN(c1cnc(-c2ccc(-c3cccnc3)cc2O)nn1)C1CC(C)(C)NC(C)(C)C1` [Cpd 384, 2-{6-[methyl(2,2,6,6-tetramethylpiperidin-4-yl)amino]-1,2,4-triazin-3-yl}-5-(pyridin-3-yl)phenol] was ≤ 100 nM.
